Reference: article PMC11847706, “Deep learning enhances the prediction of HLA class I-presented CD8^+ T cell epitopes in foreign pathogens” (Nature Machine Intelligence, 2025)

Assays:
PBMCs = assay: Ex vivo IFNγ ELISpot assay; type: cell-based, human; settings: for Effector CD8^+ T cell responses across multiple individuals: ex vivo IFNγ ELISpot, HLA-A*02:01-restricted, Fig. 6c
Protocol: IFNγ ELISpot assays were performed according to the manufacturer’s instructions (Mabtech). PBMCs were incubated with individual peptides from EBV at a final concentration of 0.5 μg ml^−1 for 16–18 h. Positive controls were anti-human CD3 (Clone OKT3, BioLegend, 0.5 μg ml^−1) and anti-human CD28 (Clone CD28.2, BioLegend, 0.5 μg ml^−1) antibodies. The number of spot-forming units in the highest-value DMSO control well was subtracted from each experimental well. Responses were considered positive if both replicates had greater than or equal to five spot-forming units per well above background.

CD8^+ T cells = assay: Ex vivo proliferation assay (CellTrace Far Red); type: cell-based, human; settings: HLA-A*02:01-restricted, Fig. 6d
Protocol: PBMCs were suspended at 1 × 10^6 cells per ml in 1 μM CellTrace Far Red dye (ThermoFisher) in PBS and incubated at 37 °C for 20 min. Cells were protected from light and mixed every 5 min during the incubation. RPMI supplemented with 10% fetal bovine serum was added to quench the reaction for 5 min, followed by centrifugation at 1,500 rpm for 3 min before resuspension in culture media. Cells were plated into 96-well U-bottom plates (Corning) (200,000 cells per well in 200 μl of culture media) and incubated with individual EBV peptides at a concentration of 0.5 μg ml^−1 for 5 days. Cells were washed with PBS supplemented with 2% fetal bovine serum and stained with anti-human CD3-BUV395 (Clone UCHT1, BD Biosciences, 1:100 dilution), anti-human CD4-PE-Cy7 (Clone OKT4, BioLegend, 1:100 dilution), anti-human CD8-BV605 (Clone SK1, BioLegend, 1:100 dilution) and live/dead violet viability dye (Life Technologies). Cells were washed and fixed in 2% paraformaldehyde and flow cytometric analysis was performed on a BD LSR Fortessa (BD Biosciences).

| Sequence | Immunogenicity (T cell reactivity) (PBMCs; HLA-A*02:01, 15mer, LMP2A: 71-85) | Effector CD8^+ T cell responses across multiple individuals (PBMCs) | Memory CD8^+ T cell responses across multiple individuals (CD8^+ T cells) |
| --- | --- | --- | --- |
| HSDYQPLGTQDQSLY | immunogenic | – | – |
| SIIPRTPDV [A*02-SV9] | – | capable of eliciting | capable of eliciting |
| YVLDHLIVV [A*02-YV9] | – | capable of eliciting | capable of eliciting |
